Measured values published in US12383539B2 (Cavion, Inc., priority 2018, dated 2025).

Test system: patients with essential tremor
Assay: T-CALM: Kinesia ONE accelerometry score
Type: in vivo, human
Excerpt: Kinesia One platform is deployed in T-CALM as a digital marker of tremor severity. Kinesia One is FDA cleared for monitoring Parkinson's motor symptom severity with only limited data on assessment of tremor in ET patients. The algorithmically derived score was developed primarily in Parkinson's disease algorithms and has limited validation in ET (see, e.g., Hoffman et al., 2011 Conf Proc IEEE Eng Med Biol Soc. 2011:4378-81). The Kinesia One device is placed on the index finger of each ET patient and worn in the clinic after completion of the TETRAS Performance subscale. Four tasks are performed by the patient on the left and right sides to assess resting, postural, kinetic and lateral wing beating tremor. The Kinesia One score change in score from baseline to day 28 is evaluated as a secondary efficacy endpoint. The Kinesia One data is also utilized for exploratory analysis of efficacy on the change from baseline to day 15 for accelerometry score and for change from baseline on amplitude measures for days 15 and 28. Consistent finger sensor placement and consistent task execution are critical factors for valid Kinesia One scores.
Both sets of scores were statistically analyzed.

## CC(C)c1ccc(CC(=O)N[C@H](C)c2ccc(OCC(F)(F)F)cn2)cc1 [CX-8998]
Day 15
  Kinesia ONE total score, Median: 7.9
  Kinesia ONE total score, change from baseline, Median: −1.1
Day 15 and Day 28
  Kinesia ONE score vs placebo: did not show a significant difference
Day 28
  Kinesia ONE total score, Median: 7.8
  Kinesia ONE total score, change from baseline, Median: −0.7
